The values that follow come from publication PMC11995724, “Antibiotic target discovery by integrated phenotypic and activity-based profiling of electrophilic fragments” (Cell chemical biology, 2025).

Structures can show the parent of a compound that is named as a salt.

The nature of this data set: in vitro. Particulars: human, hek293t cells.
Broadly, the viability is a read-out of living cells in per cent, often relative to untreated cells. `CCc1cc(SC#N)cc(CC)c1NC(=O)CCl` [4-J12, 2-chloro-N-[4-(cyanosulfanyl)-2,6-diethylphenyl]acetamide]: the viability at 48 h, 25 µM came out at 84.8%. With `CC(Cl)C(=O)NC(=O)NC1CCS(=O)(=O)C1` (centres unmarked) [4-J13, 3-(2-chloropropanoyl)-1-(1,1-dioxo-1lambda6-thiolan-3-yl)urea] the figure was 94.7%; with `O=C(CCl)NC(c1ccccc1)c1cccs1` (centres unmarked) [4-J14, 2-chloro-N-[phenyl(thiophen-2-yl)methyl]acetamide], 1.95%; with `Cc1ccc(NC(=O)C(C)Cl)cc1` (centres unmarked) [4-J15, 2-chloro-N-(4-methylphenyl)propanamide], 92.1%. To `CCOc1ccc(NC(=O)CCl)cc1S(=O)(=O)N1CCCC1` [4-J16, 2-chloro-N-[4-ethoxy-3-(pyrrolidine-1-sulfonyl)phenyl]acetamide] belongs 1.41%; to `CC(Cl)C(=O)Nc1ccc([N+](=O)[O-])cc1Cl` (centres unmarked) [4-J17, 2-chloro-N-(2-chloro-4-nitrophenyl)propanamide], 85.5%. With `O=C(CCl)N(Cc1ccco1)C12CC3CC(CC(C3)C1)C2` [4-J18, N-(adamantan-1-yl)-2-chloro-N-[(furan-2-yl)methyl]acetamide] the figure was 1.5%; with `COC(=O)c1c(NC(=O)CCl)sc2c1CCC(C(C)(C)C)C2` (centres unmarked) [4-J19, methyl 6-tert-butyl-2-(2-chloroacetamido)-4,5,6,7-tetrahydro-1-benzothiophene-3-carboxylate], 69.6%; with `O=C(CN1CCN(C(=O)CCl)CC1)Nc1ccc(F)cc1` [4-J20, 2-[4-(2-chloroacetyl)piperazin-1-yl]-N-(4-fluorophenyl)acetamide hydrochloride], 1.34%. With `O=C(CCl)NCCc1nc2c(s1)CCCCC2` [4-J21, 2-chloro-N-(2-{4H,5H,6H,7H,8H-cyclohepta[d][1,3]thiazol-2-yl}ethyl)acetamide], the viability at 48 h, 25 µM was found to be 15%. To `CN(C)S(=O)(=O)c1ccccc1CNC(=O)CCl` [4-J22, 2-chloro-N-{[2-(dimethylsulfamoyl)phenyl]methyl}acetamide] belongs 1.7%; to `Cc1ccc(Oc2ccc(NC(=O)CCl)cc2)cc1` [4-K03, 2-chloro-N-[4-(4-methylphenoxy)phenyl]acetamide], 0.0354%; to `Cc1cc(C)cc(-c2cc(NC(=O)CCl)n(-c3ccccc3)n2)c1` [4-K04, 2-chloro-N-[3-(3,5-dimethylphenyl)-1-phenyl-1H-pyrazol-5-yl]acetamide], -0.323%. As to `CN(CC(=O)Nc1ccccc1C(F)(F)F)C(=O)CCl` [4-K05, 2-chloro-N-methyl-N-({[2-(trifluoromethyl)phenyl]carbamoyl}methyl)acetamide], the viability at 48 h, 25 µM was found to be 0.506%. To `Cc1ccc2sc(N(Cc3ccccc3)C(=O)CCl)nc2c1C` [4-K06, N-benzyl-2-chloro-N-(4,5-dimethyl-1,3-benzothiazol-2-yl)acetamide] belongs -0.0749%.

On to `CCN(CC)S(=O)(=O)c1ccc(NC(=O)CCl)cc1` [4-K07, 2-chloro-N-[4-(diethylsulfamoyl)phenyl]acetamide], for which the viability at 48 h, 25 µM turned out to be 0.364%. To `CC(C)OC(=O)c1ccc(NC(=O)C(C)Cl)cc1` (centres unmarked) [4-K08, propan-2-yl 4-(2-chloropropanamido)benzoate] belongs 76.3%; to `O=C(CCl)Nc1cc(Cl)cc(Cl)c1` [4-K09, 2-chloro-N-(3,5-dichlorophenyl)acetamide], 1.41%. With `CC(Cl)C(=O)Nc1ccc2c(c1)OCCCO2` (centres unmarked) [4-K10, 2-chloro-N-(3,4-dihydro-2H-1,5-benzodioxepin-7-yl)propanamide] the figure was 85.4%.

With `CC(C)C(NC(=O)CCl)c1ccccc1` (centres unmarked) [4-K11, 2-chloro-N-(2-methyl-1-phenylpropyl)acetamide], the viability at 48 h, 25 µM came to 3.98%. As for `COc1cc([N+](=O)[O-])ccc1NC(=O)C(C)Cl` (centres unmarked) [4-K12, 2-chloro-N-(2-methoxy-4-nitrophenyl)propanamide], the viability at 48 h, 25 µM is 91.3%. To `CC(C)N(C)S(=O)(=O)c1ccc(NC(=O)CCl)cc1` [4-K13, 2-chloro-N-{4-[methyl(propan-2-yl)sulfamoyl]phenyl}acetamide] belongs 1.64%; to `CC(Cl)C(=O)NCCc1ccccc1` (centres unmarked) [4-K14, 2-chloro-N-(2-phenylethyl)propanamide], 102%. To `Cc1cc(N(CCC#N)C(=O)CCl)ccc1Cl` [4-K15, 2-chloro-N-(4-chloro-3-methylphenyl)-N-(2-cyanoethyl)acetamide] belongs 0.75%; to `CC1CC(C)CN(S(=O)(=O)c2ccc(NC(=O)CCl)cc2)C1` (centres unmarked) [4-K16, 2-chloro-N-{4-[(3,5-dimethylpiperidin-1-yl)sulfonyl]phenyl}acetamide], 0.265%.

Turning to `CCC(NC(=O)CCl)c1ccc(C)cc1` (centres unmarked) [4-K17, 2-chloro-N-[1-(4-methylphenyl)propyl]acetamide], the viability at 48 h, 25 µM is 2.62%.

As for `O=C(CCl)NC(c1ccc(F)cc1)c1cccs1` (centres unmarked) [4-K18, 2-chloro-N-[(4-fluorophenyl)(thiophen-2-yl)methyl]acetamide], the viability at 48 h, 25 µM stood at 0.21%. For `COc1ccc(C(NC(=O)CCl)C2CC2)cc1` (centres unmarked) [4-K19, 2-chloro-N-[cyclopropyl(4-methoxyphenyl)methyl]acetamide], the viability at 48 h, 25 µM is 2.83%. For the molecule `O=C(CCl)N1N=C(c2cccs2)CC1c1ccccc1O` (centres unmarked) [4-K20, 2-chloro-1-[5-(2-hydroxyphenyl)-3-(thiophen-2-yl)-4,5-dihydro-1H-pyrazol-1-yl]ethan-1-one], the viability at 48 h, 25 µM is -0.22%. Consider `Cc1ccc(SCCNC(=O)CCl)cc1` [4-K21, 2-chloro-N-{2-[(4-methylphenyl)sulfanyl]ethyl}acetamide], for which the viability at 48 h, 25 µM turned out to be 1.65%. To `O=C(CCl)N1N=C(c2ccc3ccccc3c2)CC1c1ccccc1` (centres unmarked) [4-K22, 2-chloro-1-[3-(naphthalen-2-yl)-5-phenyl-4,5-dihydro-1H-pyrazol-1-yl]ethan-1-one] belongs -0.201%; to `CSc1ccccc1NC(=O)CN(C)C(=O)CCl` [4-L03, 2-chloro-N-methyl-N-({[2-(methylsulfanyl)phenyl]carbamoyl}methyl)acetamide], 0.451%.

For `O=C(CCl)Nc1nc(-c2ccccc2)cs1` [4-L04, 2-chloro-N-(4-phenyl-1,3-thiazol-2-yl)acetamide], the viability at 48 h, 25 µM was -0.0639%. In the case of `COc1ccc(NC(=O)c2ccccc2NC(=O)CCl)cc1` [4-L05, 2-(2-chloroacetamido)-N-(4-methoxyphenyl)benzamide], the viability at 48 h, 25 µM was 0.046%. With `Cc1ccc(S(=O)(=O)N2CCCCC2)cc1NC(=O)CCl` [4-L06, 2-chloro-N-[2-methyl-5-(piperidine-1-sulfonyl)phenyl]acetamide] the figure was 0.53%; with `Cc1ccc(NC(=O)CCl)cc1S(=O)(=O)N1CCOCC1` [4-L07, 2-chloro-N-[4-methyl-3-(morpholine-4-sulfonyl)phenyl]acetamide], 0.278%. On to `O=C(CCl)Nc1c(F)c(F)c(F)c(F)c1F` [4-L08, 2-chloro-N-(2,3,4,5,6-pentafluorophenyl)acetamide], for which the viability at 48 h, 25 µM was found to be 1.92%. To `CC(Cl)C(=O)Nc1ccc(SC(F)F)cc1` (centres unmarked) [4-L09, 2-chloro-N-{4-[(difluoromethyl)sulfanyl]phenyl}propanamide] belongs 71.9%.

As to `CCOc1ccc2nc(NC(=O)CCl)sc2c1` [4-L10, 2-chloro-N-(6-ethoxy-1,3-benzothiazol-2-yl)acetamide], the viability at 48 h, 25 µM came to 0.621%. With `O=C(CCl)NC(Cc1ccccc1)c1ccccc1` (centres unmarked) [4-L11, 2-chloro-N-(1,2-diphenylethyl)acetamide] the figure was 0.317%; with `O=C(CCl)N(Cc1cccs1)C1CCS(=O)(=O)C1` (centres unmarked) [4-L12, 2-chloro-N-(1,1-dioxo-1lambda6-thiolan-3-yl)-N-[(thiophen-2-yl)methyl]acetamide], 1.65%. With `CC(Cl)C(=O)Nc1cccc(Cl)c1Cl` (centres unmarked) [4-L13, 2-chloro-N-(2,3-dichlorophenyl)propanamide] the figure was 81.1%; with `O=C(CCl)N(Cc1ccco1)c1ccccc1` [4-L14, 2-chloro-N-[(furan-2-yl)methyl]-N-phenylacetamide], 1.2%. With `CCc1ccc(NC(=O)C(C)Cl)cc1` (centres unmarked) [4-L15, 2-chloro-N-(4-ethylphenyl)propanamide] the figure was 76.6%; with `O=C(CCl)NCC(=O)Nc1ccc(F)c(F)c1` [4-L16, 2-chloro-N-{[(3,4-difluorophenyl)carbamoyl]methyl}acetamide], 1.48%; with `CC(Cl)C(=O)Nc1ccc(Cl)cc1Cl` (centres unmarked) [4-L17, 2-chloro-N-(2,4-dichlorophenyl)propanamide], 81.6%.

Consider `O=C(CCl)N(c1ccccc1)C1CCCCC1` [4-L18, 2-chloro-N-cyclohexyl-N-phenylacetamide], for which the viability at 48 h, 25 µM was 0.523%. With `Cc1cc(C(C)(C)C)cc(C)c1NC(=O)CCl` [4-L19, N-(4-tert-butyl-2,6-dimethylphenyl)-2-chloroacetamide] the figure was 1.04%; with `O=C(CCl)N1CCc2sccc2C1c1cccs1` (centres unmarked) [4-L20, 2-chloro-1-[4-(thiophen-2-yl)-4H,5H,6H,7H-thieno[3,2-c]pyridin-5-yl]ethan-1-one], -0.242%. To `O=C(CCl)NCc1ccccc1OC(F)(F)F` [4-L21, 2-chloro-N-{[2-(trifluoromethoxy)phenyl]methyl}acetamide] belongs 0.623%. To `O=C(CCl)Nc1nc(-c2cc(F)ccc2F)cs1` [4-L22, 2-chloro-N-[4-(2,5-difluorophenyl)-1,3-thiazol-2-yl]acetamide] belongs 0.065%. `CCCc1cc(NC(=O)CCl)n(-c2ccccc2)n1` [4-M03, 2-chloro-N-(1-phenyl-3-propyl-1H-pyrazol-5-yl)acetamide]: the viability at 48 h, 25 µM was found to be 0.483%. Consider `CCc1cc(SC#N)cc(C)c1NC(=O)CCl` [4-M04, 2-chloro-N-[4-(cyanosulfanyl)-2-ethyl-6-methylphenyl]acetamide], for which the viability at 48 h, 25 µM stood at 17.6%.
